Values after ≈ are worked out from the molar mass of the structure shown. Where two headings read alike, the source gives them in different places. Where a SMILES comes first, the peptide text is derived from it. Bridges are numbered along the chain shown (N, C = ends). [ ]: non-standard residue; d: D form. The star is where a group is joined. X9 = CC(C)c1cccc([C@H](CN)CC(=O)*)c1; X16 = NC[C@H](CC(=O)*)Cc1cccc(Cl)c1; X8 = NC[C@@H](CC(=O)*)Cc1cccc(Cl)c1; X13 = Cc1cccc([C@H](CN)CC(=O)*)c1; Dab = NCC[C@H](N)C(=O)O; Dap = NC[C@H](N)C(=O)O
Assays:
Format in all cases: cell-based
A. baumannii NCTC 13424 = test system: A. baumannii NCTC 13424
Method: (§1) The inoculum was prepared by making a direct suspension of isolated colonies (selected from an 18-24 hour Mueller-Hinton agar plate) adjusted to the 0.5 McFarland standard. […] The assays were performed in duplicate. […] The MIC values are quoted in μg/mL.

[1] = test system: A. baumannii ATCC BAA-747
Method: as §1

E. coli ATCC 25922 = test system: E. coli ATCC 25922
Method: as §1

P. aeruginosa ATCC 27853 = test system: P. aeruginosa ATCC 27853
Method: as §1

K. pneumoniae ATCC 13822 = test system: K. pneumoniae ATCC 13822
Method: as §1

P. aeruginosa CCUG 59347 = test system: P. aeruginosa CCUG 59347
Method: (§2) The inoculum was prepared by making a direct suspension of isolated colonies (selected from an 18-24 hour Mueller-Hinton agar plate) adjusted to the 0.5 McFarland standard. […] The assays were performed in duplicate. […] Several of the compounds were subjected to multiple tests, and where this is the case, the MIC presented is the median value obtained. The MIC values are quoted in μg/mL.

E. coli CA58 = test system: E. coli CA58
Method: as §2

K. pneumoniae CA64 = test system: K. pneumoniae CA64
Method: as §2

[2] = cation-adjusted Mueller-Hinton Broth, 18-20 h, 35° C.

| Structure (SMILES) | MIC A. baumannii NCTC 13424 (A. baumannii NCTC 13424; [2]) [µg/mL] | MIC A. baumannii ATCC BAA-747 [1, 2] [µg/mL] | MIC E. coli ATCC 25922 (E. coli ATCC 25922; [2]) [µg/mL] | MIC P. aeruginosa ATCC 27853 (P. aeruginosa ATCC 27853; [2]) [µg/mL] | MIC K. pneumoniae ATCC 13822 (K. pneumoniae ATCC 13822; [2]) [µg/mL] | MIC P. aeruginosa CCUG 59347 (P. aeruginosa CCUG 59347; [2]) [µg/mL] | MIC E. coli CA58 (E. coli CA58; [2]) [µg/mL] | MIC K. pneumoniae CA64 (K. pneumoniae CA64; [2]) [µg/mL] | MIC A. baumannii NCTC 13424 (A. baumannii NCTC 13424; NCTC 13424) [µg/mL] | MIC A. baumannii ATCC BAA-747 ([1]; ATCC BAA-747) [µg/mL] | MIC E. coli ATCC 25922 (E. coli ATCC 25922; ATCC 25922) [µg/mL] | MIC P. aeruginosa ATCC 27853 (P. aeruginosa ATCC 27853; ATCC 27853) [µg/mL] | MIC K. pneumoniae ATCC 13822 (K. pneumoniae ATCC 13822; ATCC 13822) [µg/mL] | MIC P. aeruginosa CCUG 59347 (P. aeruginosa CCUG 59347; CCUG 59347) [µg/mL] | MIC E. coli CA58 (E. coli CA58; CA58) [µg/mL] | MIC K. pneumoniae CA64 (K. pneumoniae CA64; CA64) [µg/mL] |
| --- | --- | --- | --- | --- | --- | --- | --- | --- | --- | --- | --- | --- | --- | --- | --- | --- |
| CC(C)C[C@@H]1NC(=O)[C@@H](CC(C)C)NC(=O)[C@H](CCN)NC(=O)[C@@H](NC(=O)[C@H](CN)NC(=O)[C@@H](NC(=O)C[C@@H](CN)c2cccc(C(C)C)c2)[C@@H](C)O)CCNC(=O)[C@H]([C@@H](C)O)NC(=O)[C@H](CCN)NC(=O)[C@H](CCN)NC1=O [Example 16, (R)-4-amino-3-(3- isopropylphenyl) butanoyl-Thr-Dap- Cyclo[Dab-Dab-DLeu- Leu-Dab-Dab-Thr]] (X9-T[Dap][Dab][Dab][dL]L[Dab][Dab]T; lactam 3-C) | 0.5 (≈ 0.447 µM) | 0.5 (≈ 0.447 µM) | 0.5 (≈ 0.447 µM) | 0.5 (≈ 0.447 µM) | 0.25 (≈ 0.224 µM) | 1 (≈ 0.894 µM) | 16 (≈ 14.3 µM) | 8 (≈ 7.15 µM) |  |  |  |  |  |  |  |  |
| CC(C)C[C@@H]1NC(=O)[C@@H](CC(C)C)NC(=O)[C@H](CCN)NC(=O)[C@@H](NC(=O)[C@H](CN)NC(=O)[C@@H](NC(=O)C[C@@H](CN)Cc2cccc(Cl)c2)[C@@H](C)O)CCNC(=O)[C@H]([C@@H](C)O)NC(=O)[C@H](CCN)NC(=O)[C@H](CCN)NC1=O [Example 13, (S)-4-amino-3-(3- chlorobenzyl)butanoyl- Thr-Dap-Cyclo[Dab- Dab-DLeu-Leu-Dab- Dab-Thr], Isomer 2] (X16-T[Dap][Dab][Dab][dL]L[Dab][Dab]T; lactam 3-C) |  |  |  |  |  |  |  |  | 0.5 (≈ 0.445 µM) | 0.5 (≈ 0.445 µM) | 0.5 (≈ 0.445 µM) | 0.25 (≈ 0.222 µM) | 0.5 (≈ 0.445 µM) | 0.5 (≈ 0.445 µM) | 8 (≈ 7.11 µM) | 16 (≈ 14.2 µM) |
| Cc1cccc([C@H](CN)CC(=O)N[C@H](C(=O)N[C@@H](CN)C(=O)N[C@H]2CCNC(=O)[C@H]([C@@H](C)O)NC(=O)[C@H](CCN)NC(=O)[C@H](CCN)NC(=O)[C@H](CC(C)C)NC(=O)[C@@H](Cc3ccccc3)NC(=O)[C@H](CCN)NC2=O)[C@@H](C)O)c1 [Example 22, (R)-4-amino-3-(m- toly)butanoyl-Thr- Dap-Cyclo[Dab-Dab- DPhe-Leu-Dab-Dab- Thr]] (X13-T[Dap][Dab][Dab][dF]L[Dab][Dab]T; lactam 3-C) | 1 (≈ 0.889 µM) | 1 (≈ 0.889 µM) | 0.25 (≈ 0.222 µM) | 0.25 (≈ 0.222 µM) | 0.25 (≈ 0.222 µM) | 0.5 (≈ 0.445 µM) | 16 (≈ 14.2 µM) | 8 (≈ 7.12 µM) |  |  |  |  |  |  |  |  |
| CC(C)C[C@@H]1NC(=O)[C@@H](CC(C)C)NC(=O)[C@H](CCN)NC(=O)[C@@H](NC(=O)[C@H](CN)NC(=O)[C@@H](NC(=O)C[C@H](CN)Cc2cccc(Cl)c2)[C@@H](C)O)CCNC(=O)[C@H]([C@@H](C)O)NC(=O)[C@H](CCN)NC(=O)[C@H](CCN)NC1=O [Example 14, (R)-4-amino-3-(3- chlorobenzy!)butanoyl- Thr-Dap-Cyclo[Dab- Dab-DLeu-Leu-Dab- Dab-Thr] Isomer 1] (X8-T[Dap][Dab][Dab][dL]L[Dab][Dab]T; lactam 3-C) |  |  |  |  |  |  |  |  | 0.5 (≈ 0.445 µM) | 0.5 (≈ 0.445 µM) | 1 (≈ 0.889 µM) | 0.5 (≈ 0.445 µM) | 0.5 (≈ 0.445 µM) | 1 (≈ 0.889 µM) | 8 (≈ 7.11 µM) | 32 (≈ 28.4 µM) |
